Source: US20120122822A1, “COMPOSITIONS FOR REDUCING BETA-AMYLOID-INDUCED NEUROTOXICITY COMPRISING BETA-SECRETASE INHIBITOR” (Phloronol, Inc., priority 2010, published 2012)
Read-outs that look alike come from different tables or passages of the source.

What was measured:
[1] = test system: beta amyloid (Aβ) production in N2a/APP cells; experiment: Inhibition of beta amyloid Aβ(1-42) production in nerve cells, immunoassay; assay type: cell-based; details: read-out: Aβ Inhibition Rate (%)
Protocol: N2a/APP cells, used as a study model for neurodegenerative diseases (Wang X C, Zhang Y C, Chatterjie N, Grundke-Iqbal I, Iqbal K, Wang J Z. Neurochem Res (2008) 33:1138-1144), were employed to analyze the inhibition of beta amyloid (Aβ) production in nerve cells. N2a/APP cells were fixed onto 24-well plates (5×10^4 cells/well) containing a medium devoid of hygromycin B. The ingredients listed in Table 5 were added at a final concentration of 10 μg/mL to each well and incubated for 48 hrs. Secreted Aβ(1-42) was quantitatively analyzed with an Aβ(1-42) immunoassay kit (Biosource, Camarillo, Calif., USA). In this regard, the medium in each well was transferred into 96-well plates coated with an Aβ(1-42) antibody and then treated with a detection antibody. For this, after incubation at room temperature for 3 hrs, the medium was treated with HRP (horseradish peroxidase), an anti-rabbit antibody and stabilized chromogen to allow an antigen-antibody reaction. This reaction was terminated with a stop buffer before absorbance was read at 450 nm. For a negative control, no samples were added to the medium. Inhibitory effects on beta amyloid production were calculated according to the following equation and the results are summarized in Table 5, below.
Aβ Inhibition (%)=(C−S)/C×100
(§1) where C is the absorbance of a negative control and S is the absorbance of each sample.

[2] = test system: N2a/APP cells; experiment: Reduction of neurotoxicity, MTT cell viability assay; assay type: cell-based; details: 10 μg/mL, 12 hrs
Protocol: For this, N2a/APP cells were subjected to an MTT assay, which is a measure of mitochondrial activity that converts 3-(4,5-dimethyl-thiazol-2-yl)-2,5-diphenyl-tetrazolium bromide (MTT) to formazan in living cells. N2a/APP cells were seeded at a density of 1×10^4 cells/well into 96-well plates, incubated for 24 hrs, and left for 12 hrs in serum-free DMEM-Opti-MEM. Thereafter, the samples listed in Table 5 were added at a final concentration of 10 μg/mL to each well (medium free of any of the samples was used for a negative control) and then incubated for 12 hrs. To each well was added approx. 10 μL of MTT (5 mg/ml in phosphate buffered saline (PBS) solution), followed by incubation at 37° C. for 4 hrs. Each well was measured for absorbance at 570 nm. Inhibitory activity against neurotoxicity was assessed by an increase rate of cell viability as calculated by the following equation.
Increase Rate of Cell Viability (%)=(S−C)/C×100
as §1

[3] = target: T1, human recombinant BACE1 (Homo sapiens, UniProt P56817); experiment: β-secretase inhibition, human recombinant BACE1 assay kit (PanVera), fluorescence; assay type: biochemical; details: for inhibition at 0.01 µM: read-out: BACE Inhibition at 10 nM; for IC50: β-secretase (BACE)
T1 construct: purchased PanVera, Wis., USA
T1 sequence (P56817 46-501): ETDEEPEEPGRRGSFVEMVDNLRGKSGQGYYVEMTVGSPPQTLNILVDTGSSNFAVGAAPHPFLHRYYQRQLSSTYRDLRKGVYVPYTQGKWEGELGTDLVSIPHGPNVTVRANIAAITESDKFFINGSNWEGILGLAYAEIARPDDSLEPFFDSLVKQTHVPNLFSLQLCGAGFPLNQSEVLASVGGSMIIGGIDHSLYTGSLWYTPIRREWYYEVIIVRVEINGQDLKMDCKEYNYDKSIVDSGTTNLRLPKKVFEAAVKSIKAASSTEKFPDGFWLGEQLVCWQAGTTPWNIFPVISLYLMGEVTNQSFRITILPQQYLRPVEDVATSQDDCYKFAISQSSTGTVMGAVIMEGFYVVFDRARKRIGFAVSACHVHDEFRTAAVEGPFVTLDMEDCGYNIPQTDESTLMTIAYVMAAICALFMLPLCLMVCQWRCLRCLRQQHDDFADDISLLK
Protocol: The primary 1,3,5-trihydroxybenzene polymer products obtained under the various conditions were assayed for inhibitory activity against β-secretase. For this purpose, a human recombinant BACE1 assay kit (PanVera, Wis., USA) was used according to the manufacturer's instructions.
For a negative control, an assay buffer containing none of the samples was used instead of the sample solution. In the absence of light, each reaction mixture was allowed to react at 25° C. for 60 min. Thereafter, while a light beam at 528 nm was applied to the reaction mixture, fluorescent light at 620 nm was detected with Bio-Tek Microplate fluorescence reader FLx 800 (VT, USA). Inhibition activity was calculated according to the following formula:
Inhibition (%)=[1−{(S−S0)/(C−C0)}]×100
C is a fluorescent intensity after reaction of the negative control for 60 min,
C0 is an initial fluorescent intensity of the negative control,
S is a fluorescent intensity after reaction of each sample for 60 min, and
S0 is an initial fluorescent intensity of each sample.

[4] = N2a/APP cells, 10 μg/mL, 48 hrs, secreted Aβ(1-42)

| SMILES | inhibition at 10 µg/mL [1, 4] | Increase Rate of Cell Viability (%) [2] | inhibition at 10 µg/mL ([1]; 48 h) | inhibition at 0.01 µM [3] | IC50 [3] |
| --- | --- | --- | --- | --- | --- |
| Cc1ccc(-c2cc(C(F)(F)F)nn2-c2ccc(S(N)(=O)=O)cc2)cc1 [C. Ex. 5, celecoxib] | 19% | 15% | – | – | – |
| C[C@H](NC(=O)Cc1cc(F)cc(F)c1)C(=O)N[C@H]1N=C(c2ccccc2)c2ccccc2N(C)C1=O [C. Ex. 3, (S)-2-[2-(3,5-Difluoro-phenyl)-acetylamino]-N-((S)-1-methyl-2-oxo-5-phenyl-2,3-dihydro-1H-benzo[e][1,4]diazepin-3-yl)-propionamide] | – | −5% | 22% | – | – |
| O=c1c(O)c(-c2ccc(O)c(O)c2)oc2cc(O)cc(O)c12 [C. Ex. 6, quercetin] | – | 12% | 17% | – | – |
| Oc1cc(O)cc(Oc2c(O)cc(O)c3c2oc2cc(O)c4c(c23)Oc2c(O)cc(O)cc2O4)c1 [Chemical Formula 3-2] | – | – | – | 87% | 1.7 nM |
| Oc1cc(O)c2c(c1)Oc1c(cc3oc4cc(O)cc(O)c4c3c1O)O2 [Chemical Formula 4-1] | – | – | – | 65% | 4.7 nM |
| Oc1cc(O)cc(Oc2c(O)cc(O)c3c2Oc2c(cc4oc5c(Oc6cc(O)cc(O)c6)c(O)cc(O)c5c4c2O)O3)c1 [Chemical Formula 4-4] | 27% | 21% | – | 86% | 2.4 nM |
| Oc1cc(O)cc(Oc2c(O)cc(O)c3c2Oc2c(O)cc4oc5cc(O)cc(O)c5c4c2O3)c1 [Chemical Formula 3-4] | – | – | – | 90% | 1.5 nM |
| Oc1cc(O)c2c(c1)Oc1c(O)cc3oc4cc(O)cc(O)c4c3c1O2 [Chemical Formula 3-1] | – | – | – | 53% | 5.8 nM |
| Oc1ccc(C=Cc2cc(O)cc(O)c2)cc1 [C. Ex. 7, resveratrol] | – | 10% | 13% | – | – |
| Oc1cc(O)cc(Oc2c(O)cc3c(c2O)Oc2c(c(O)cc4oc5c(Oc6cc(O)cc(O)c6)c(O)cc(O)c5c24)O3)c1 [Chemical Formula 3-6] | 30% | 22% | – | 94% | 1.3 nM |
| Oc1cc(O)cc(Oc2c(O)cc(O)c3c2Oc2c(cc4oc5cc(O)cc(O)c5c4c2O)O3)c1 [Chemical Formula 4-3] | – | – | – | 70% | 4 nM |
| C[C@H](NC(=O)Cc1cc(F)cc(F)c1)C(=O)N[C@@H]1C(=O)N(C)c2ccccc2-c2ccccc21 [C. Ex. 2, (S)-2-[2-(3,5-Difluoro-phenyl)-acetylamino]-N-((S)-5-methyl-6-oxo-6,7-dihydro-5H-dibenzo[b,d]azepin-7-yl)-propionamide] | 21% | 5% | – | – | – |
| CC(C)Cc1ccc(C(C)C(=O)O)cc1 (centres unmarked) [C. Ex. 4, ibuprofen] | 17% | 2% | – | – | – |
| Oc1cc(O)cc(Oc2c(O)cc(O)c3c2oc2cc4c(c(O)c23)Oc2cc(O)cc(O)c2O4)c1 [Chemical Formula 4-2] | – | – | – | 77% | 3.6 nM |
